{
  "source": "patent US10202361B2",
  "about": "“Pyridazinones as herbicides” (E I DU PONT DE NEMOURS AND COMPANY, priority 2014, dated 2019)",
  "type_in_all_cases": "in vivo",
  "key": {"[1]": {"tested_on": "chickweed (common chickweed, Stellaria media)", "test": "Test C postemergence greenhouse herbicide test", "from_the_text": "(§1) At the same time, plants selected from these crop and weed species and also barley (winter barley, Hordeum vulgare), canarygrass (Phalaris minor), windgrass (Apera spica-venti), deadnettle (henbit deadnettle, Lamium amplexicaule), and chickweed (common chickweed, Stellaria media) were planted in pots containing Redi-Earth® planting medium (Scotts Company, 14111 Scottslawn Road, Marysville, Ohio 43041) comprising spaghnum peat moss, vermiculite, wetting agent and starter nutrients and treated with postemergence applications of test chemicals formulated in the same manner. Plants ranged in height from 2 to 18 cm (1- to 4-leaf stage) for postemergence treatments. Treated plants and controls were maintained in a greenhouse for 13 to 15 d, after which time all species were compared to controls and visually evaluated. Plant response ratings, summarized in Table C, are based on a scale of 0 to 100 where 0 is no effect and 100 is complete control. A dash (-) response means no test result."}, "[2]": {"tested_on": "crabgrass, Large (large crabgrass, Digitaria sanguinalis)", "test": "Test C pre-/postemergence greenhouse herbicide test", "settings": "Digitaria sanguinalis, Crabgrass, Large, read-out: Plant response rating; for pest or weed control at 31 g/ha: 31 g ai/ha; for pest or weed control at 62 g/ha: 62 g ai/ha; for pest or weed control at 125 g/ha: 125 g ai/ha; for pest or weed control at 250 g/ha: 250 g ai/ha", "from_the_text": "(§2) Seeds of plant species selected from blackgrass (Alopecurus myosuroides), bromegrass, downy (downy bromegrass, Bromus tectorum), foxtail, green (green foxtail, Setaria viridis), ryegrass, Italian (Italian ryegrass, Lolium multiflorum), wheat (winter wheat, Triticum aestivum), oat, wild (wild oat, Avena fatua), galium (catchweed bedstraw, Galium aparine), bermudagrass (Cynodon dactylon), surinam grass (Brachiaria decumbens), cocklebur (common cocklebur, Xanthium strumarium), corn (Zea mays), crabgrass, large (large crabgrass, Digitaria sanguinalis), cupgrass, woolly (woolly cupgrass, Eriochloa villosa), foxtail, giant (giant foxtail, Setaria faberii), goosegrass (Eleusine indica), johnsongrass (Sorghum halepense), kochia (Kochia scoparia), lambsquarters (Chenopodium album), morningglory (Ipomoea coccinea), nightshade (eastern black nightshade, Solanum ptycanthum), nutsedge, yellow (yellow nutsedge, Cyperus esculentus), pigweed (Amaranthus retroflexus), ragweed (common ragweed, Ambrosia elatior), soybean (Glycine max), sunflower (common oilseed sunflower, Helianthus annuus), Russian thistle (Salsola kali), barnyardgrass (Echinochloa crus-galli), oilseed rape (Brassica napus), waterhemp (common waterhemp, Amaranthus rudis), and velvetleaf (Abutilon theophrasti) were planted into a blend of loam soil and sand and treated preemergence with test chemicals formulated in a non-phytotoxic solvent mixture which included a surfactant.\nas §1"}, "[3]": {"tested_on": "velvetleaf (Abutilon theophrasti)", "test": "Test C pre-/postemergence greenhouse herbicide test", "settings": "Abutilon theophrasti, Velvetleaf, read-out: Plant response rating; for pest or weed control at 62 g/ha: 62 g ai/ha; for pest or weed control at 125 g/ha: 125 g ai/ha", "from_the_text": "as §2, §1"}, "[4]": {"tested_on": "foxtail, giant (giant foxtail, Setaria faberii)", "test": "Test C pre-/postemergence greenhouse herbicide test", "settings": "Setaria faberi, Foxtail, Giant, read-out: Plant response rating; for pest or weed control at 31 g/ha: 31 g ai/ha; for pest or weed control at 62 g/ha: 62 g ai/ha; for pest or weed control at 125 g/ha: 125 g ai/ha; for pest or weed control at 250 g/ha: 250 g ai/ha", "from_the_text": "as §2, §1"}, "[5]": {"tested_on": "blackgrass (Alopecurus myosuroides)", "test": "Test C pre-/postemergence greenhouse herbicide test", "settings": "Alopecurus myosuroides, Blackgrass, read-out: Plant response rating; for pest or weed control at 62 g/ha: 62 g ai/ha; for pest or weed control at 125 g/ha: 125 g ai/ha; for pest or weed control at 250 g/ha: 250 g ai/ha", "from_the_text": "as §2, §1"}, "[6]": {"tested_on": "ryegrass, Italian (Italian ryegrass, Lolium multiflorum)", "test": "Test C pre-/postemergence greenhouse herbicide test", "settings": "Lolium multiflorum, Ryegrass, Italian, read-out: Plant response rating; for pest or weed control at 31 g/ha: 31 g ai/ha; for pest or weed control at 62 g/ha: 62 g ai/ha; for pest or weed control at 125 g/ha: 125 g ai/ha; for pest or weed control at 250 g/ha: 250 g ai/ha", "from_the_text": "as §2, §1"}, "rice (Oryza sativa)": {"tested_on": "rice (Oryza sativa)", "test": "Test B flooded paddy test", "settings": "Oryza sativa, 312 h; Flood, 250 g ai/ha; scale of 0 to 100, 0 is no effect, 100 is complete control; 13 to 15 d; read-out: Plant response rating, Rice", "how_it_was_run": "(§3)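 Plants were raised to the 2-leaf stage, then pots were flooded to 3 cm above the soil and the test compound was applied directly into the paddy water, with that depth held throughout. After 13 to 15 d in a greenhouse, injury was rated visually against untreated controls on a 0–100 scale (0 = no effect, 100 = complete control).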"}, "[7]": {"tested_on": "ducksalad (Heteranthera limosa)", "test": "Test B flooded paddy test", "settings": "Heteranthera limosa, 312 h; Flood, 250 g ai/ha; scale of 0 to 100, 0 is no effect, 100 is complete control; 13 to 15 d; read-out: Plant response rating, Ducksalad", "how_it_was_run": "as §3"}, "[8]": {"tested_on": "sedge, umbrella (small-flower umbrella sedge, Cyperus difformis)", "test": "Test B flooded paddy test", "settings": "Cyperus difformis, 312 h; Flood, 250 g ai/ha; scale of 0 to 100, 0 is no effect, 100 is complete control; 13 to 15 d; read-out: Plant response rating, Sedge, Umbrella", "how_it_was_run": "as §3"}, "[9]": {"tested_on": "barnyardgrass (Echinochloa crus-galli)", "test": "Test B flooded paddy test", "settings": "Echinochloa crus-galli, 312 h; Flood, 250 g ai/ha; scale of 0 to 100, 0 is no effect, 100 is complete control; 13 to 15 d; read-out: Plant response rating, Barnyardgrass", "how_it_was_run": "as §3"}, "[10]": {"settings": "post-emergence, Postemergence, 31 g ai/ha"}},
  "note": "Read-outs that look alike come from different tables or passages of the source.",
  "data": [
    {"compound": "Cc1cc(=O)n(-c2ccc(F)cc2)nc1Oc1ccnc(C(F)(F)F)c1", "note": "[Compound 14, 2-(4-fluorophenyl)-5-methyl-6-[[2-(trifluoromethyl)-4-pyridinyl]oxy]-3 (2H)-pyridazinone]", "values": [
      {"measurement": "Plant response rating", "setting": "[1]; 31 g ai/ha", "value": 35},
      {"measurement": "Plant response rating", "setting": "[1]; 62 g ai/ha", "value": 35},
      {"measurement": "Plant response rating", "setting": "[1]; 125 g ai/ha", "value": 35},
      {"measurement": "Plant response rating", "setting": "[1]; 250 g ai/ha", "value": 55},
      {"measurement": "pest or weed control at 31 g/ha", "setting": "[2]; post-emergence, Postemergence", "value": 10, "unit": "%"},
      {"measurement": "pest or weed control at 62 g/ha", "setting": "[2]; post-emergence, Postemergence", "value": 10, "unit": "%"},
      {"measurement": "pest or weed control at 125 g/ha", "setting": "[2]; post-emergence, Postemergence", "value": 15, "unit": "%"},
      {"measurement": "pest or weed control at 250 g/ha", "setting": "[2]; post-emergence, Postemergence", "value": 30, "unit": "%"},
      {"measurement": "pest or weed control at 31 g/ha", "setting": "[2]; pre-emergence, Preemergence", "value": 80, "unit": "%"},
      {"measurement": "pest or weed control at 62 g/ha", "setting": "[2]; pre-emergence, Preemergence", "value": 100, "unit": "%"},
      {"measurement": "pest or weed control at 125 g/ha", "setting": "[2]; pre-emergence, Preemergence", "value": 100, "unit": "%"},
      {"measurement": "pest or weed control at 250 g/ha", "setting": "[2]; pre-emergence, Preemergence", "value": 100, "unit": "%"},
      {"measurement": "pest or weed control at 31 g/ha", "setting": "[3]; [10]", "value": 10, "unit": "%"},
      {"measurement": "pest or weed control at 62 g/ha", "setting": "[3]; post-emergence, Postemergence", "value": 30, "unit": "%"},
      {"measurement": "pest or weed control at 125 g/ha", "setting": "[3]; post-emergence, Postemergence", "value": 50, "unit": "%"},
      {"measurement": "pest or weed control at 62 g/ha", "setting": "[3]; pre-emergence, Preemergence", "value": 10, "unit": "%"},
      {"measurement": "pest or weed control at 125 g/ha", "setting": "[3]; pre-emergence, Preemergence", "value": 20, "unit": "%"},
      {"measurement": "pest or weed control at 250 g/ha", "setting": "[3]; pre-emergence, Preemergence, 250 g ai/ha", "value": 100, "unit": "%"},
      {"measurement": "pest or weed control at 31 g/ha", "setting": "[4]; post-emergence, Postemergence", "value": 5, "unit": "%"},
      {"measurement": "pest or weed control at 62 g/ha", "setting": "[4]; post-emergence, Postemergence", "value": 10, "unit": "%"},
      {"measurement": "pest or weed control at 125 g/ha", "setting": "[4]; post-emergence, Postemergence", "value": 10, "unit": "%"},
      {"measurement": "pest or weed control at 250 g/ha", "setting": "[4]; post-emergence, Postemergence", "value": 15, "unit": "%"},
      {"measurement": "pest or weed control at 31 g/ha", "setting": "[4]; pre-emergence, Preemergence", "value": 80, "unit": "%"},
      {"measurement": "pest or weed control at 62 g/ha", "setting": "[4]; pre-emergence, Preemergence", "value": 98, "unit": "%"},
      {"measurement": "pest or weed control at 125 g/ha", "setting": "[4]; pre-emergence, Preemergence", "value": 100, "unit": "%"},
      {"measurement": "pest or weed control at 250 g/ha", "setting": "[4]; pre-emergence, Preemergence", "value": 100, "unit": "%"},
      {"measurement": "pest or weed control at 31 g/ha", "setting": "[5]; [10]", "value": 5, "unit": "%"},
      {"measurement": "pest or weed control at 62 g/ha", "setting": "[5]; post-emergence, Postemergence", "value": 5, "unit": "%"},
      {"measurement": "pest or weed control at 125 g/ha", "setting": "[5]; post-emergence, Postemergence", "value": 5, "unit": "%"},
      {"measurement": "pest or weed control at 250 g/ha", "setting": "[5]; post-emergence, Postemergence", "value": 45, "unit": "%"},
      {"measurement": "pest or weed control at 62 g/ha", "setting": "[5]; pre-emergence, Preemergence", "value": 10, "unit": "%"},
      {"measurement": "pest or weed control at 125 g/ha", "setting": "[5]; pre-emergence, Preemergence", "value": 15, "unit": "%"},
      {"measurement": "pest or weed control at 250 g/ha", "setting": "[5]; pre-emergence, Preemergence", "value": 15, "unit": "%"},
      {"measurement": "pest or weed control at 31 g/ha", "setting": "[6]; post-emergence, Postemergence", "value": 5, "unit": "%"},
      {"measurement": "pest or weed control at 62 g/ha", "setting": "[6]; post-emergence, Postemergence", "value": 5, "unit": "%"},
      {"measurement": "pest or weed control at 125 g/ha", "setting": "[6]; post-emergence, Postemergence", "value": 10, "unit": "%"},
      {"measurement": "pest or weed control at 250 g/ha", "setting": "[6]; post-emergence, Postemergence", "value": 25, "unit": "%"},
      {"measurement": "pest or weed control at 31 g/ha", "setting": "[6]; pre-emergence, Preemergence", "value": 0, "unit": "%"},
      {"measurement": "pest or weed control at 62 g/ha", "setting": "[6]; pre-emergence, Preemergence", "value": 5, "unit": "%"},
      {"measurement": "pest or weed control at 125 g/ha", "setting": "[6]; pre-emergence, Preemergence", "value": 30, "unit": "%"},
      {"measurement": "pest or weed control at 250 g/ha", "setting": "[6]; pre-emergence, Preemergence", "value": 50, "unit": "%"},
      {"measurement": "plant injury at 250 g/ha", "setting": "rice (Oryza sativa)", "value": 30, "unit": "%"},
      {"measurement": "pest or weed control at 250 g/ha", "setting": "[7]", "value": 75, "unit": "%"},
      {"measurement": "pest or weed control at 250 g/ha", "setting": "[8]", "value": 75, "unit": "%"},
      {"measurement": "pest or weed control at 250 g/ha", "setting": "[9]", "value": 40, "unit": "%"}
    ]}
  ]
}
